Measured values reported in publication PMC12469269, “Investigating SMR Peptide Interactions with Breast Cancer-Associated Proteins” (International Journal of Molecular Sciences, 2025).

System: Jurkat T cells
Assay: EV secretion, Nef-GFP (Figure 6A), Jurkat T cells
Assay type: cell-based
Conditions: 349.6 nM SMRwt-CPP or 357.27 nM VIMwt-CPP, 24 h
Description: To investigate whether SMRwt and VIMwt peptides can suppress extracellular vesicle (EV) secretion, Jurkat T cells were co-transfected with wild-type Nef-GFP and treated with either SMRwt-CPP (349.6 nM) or VIMwt-CPP (357.27 nM) peptides. GFP fluorescence in the culture media was used as a proxy for Nef-associated EV release after 24 h of incubation.
Figure 6 SMRwt and VIMwt peptides decrease extracellular vesicle secretion in Jurkat T cells and breast cancer cells. (A) Jurkat T cells were co-transfected with 1 µg of wild-type Nef-GFP plasmid and treated with either 349.6 nM SMRwt-CPP or 357.27 nM VIMwt-CPP peptides. After 24 h at 37 °C, culture media were collected and assayed for extracellular vesicle (EV) secretion using GFP fluorescence as a proxy. (B,C) MDA-MB-231 and MCF-7 breast cancer cells were treated with either 349.6 nM SMRwt-CPP or 357.27 nM VIMwt-CPP peptides for 24 h at 37 °C. Cells were then labeled with 5 µM N-Rh-PE at 4 °C for 1 h, washed, and incubated in fresh media for an additional 24 h. Supernatants were assayed for EV secretion using N-Rh-PE fluorescence. Bar graphs show relative EV levels. Data represent mean ± SD from three independent experiments. Statistical comparisons were performed using appropriate tests; p-values are indicated. […]

“H-LYEEEMREGRKKRRQRRRPPQ - OH [VIMwt-CPP]” was tested, and the “p, peptide vs Nef-GFP alone, EV secretion” value was under 0.0006.
